The assay has as its target human adenosine A2a receptor (Homo sapiens (Human), UniProt P29274). The assay is described as follows: A2a receptor binding affinity, [3H]-NECA radioligand binding test. As to conditions: [3H]-NECA 37 nM; membrane from HEK-293 cells transfected with human adenosine A2a receptor. The essentials: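 IC50 values (μM) come from displacement of [3H]-NECA, used at 37 nM final, on human A2a receptor membranes from transfected HEK-293 cells. Incubation lasted one hour at room temperature in Tris/MgCl2/EDTA buffer, pH 7.4; filter-bound radioactivity was counted by scintillation.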
Chain of human adenosine A2a receptor (P29274 whole entry): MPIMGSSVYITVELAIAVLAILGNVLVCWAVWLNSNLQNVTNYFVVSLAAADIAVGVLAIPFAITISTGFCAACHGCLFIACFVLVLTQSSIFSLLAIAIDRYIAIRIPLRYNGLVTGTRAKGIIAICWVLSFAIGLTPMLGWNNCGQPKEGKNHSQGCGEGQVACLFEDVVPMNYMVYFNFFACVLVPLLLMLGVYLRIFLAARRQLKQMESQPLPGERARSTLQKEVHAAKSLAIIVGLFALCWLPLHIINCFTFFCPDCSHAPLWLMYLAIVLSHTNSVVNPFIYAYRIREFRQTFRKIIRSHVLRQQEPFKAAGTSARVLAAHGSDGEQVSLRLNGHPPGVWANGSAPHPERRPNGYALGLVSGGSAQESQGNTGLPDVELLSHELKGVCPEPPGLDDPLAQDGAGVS
Compound `CCC(O)(CC)CN1CCN(C(=O)[C@@H]2CCCN2c2nc(N)n3nc(-c4ccco4)nc3n2)CC1` [Example 42, (S)-(1-(7-amino-2-(furan-2-yl)-[1,2,4]triazolo[1,5-a][1,3,5]triazin-5-yl)pyrrolidin-2-yl)(4-(2-ethyl-2-hydroxybutyl)piperazin-1-yl)methanone] came in with an IC50 of 11 nM.

With `Nc1nc(N2CCC[C@H]2C(=O)N2CCN(c3ccc(C(F)(F)F)cc3F)CC2)nc2nc(-c3ccco3)nn12` [Example 149, (S)-(1-(7-amino-2-(furan-2-yl)-[1,2,4]triazolo[1,5-a][1,3,5]triazin-5-yl)pyrrolidin-2-yl)(4-(2-fluoro-4-(trifluoromethyl)phenyl)piperazin-1-yl)methanone], the IC50 turned out to be 0.5 nM.

`Nc1nc(N2CCC[C@H]2C(=O)N2CCN(CC(F)(F)F)CC2)nc2sc(-c3ccco3)nc12` [Example 238, (S)-(1-(7-amino-2-(furan-2-yl)thiazolo[5,4-d]pyrimidin-5-yl)pyrrolidin-2-yl)(4-(2,2,2-trifluoroethyl)piperazin-1-yl)methanone]: the IC50 was 3 nM.

`Nc1nc(N[C@H](C(=O)N2CCN(c3ccc(F)cc3F)CC2)C2CCCC2)nc2nc(-c3ccco3)nn12` [Example 170, (S)-2-((7-amino-2-(furan-2-yl)-[1,2,4]triazolo[1,5-a][1,3,5]triazin-5-yl)amino)-2-cyclopentyl-1-(4-(2,4-difluorophenyl)piperazin-1-yl)ethan-1-one] displayed an IC50 of 1 nM.

In the case of `C[C@H](Nc1nc(N)n2nc(-c3ccco3)nc2n1)C(=O)N1CCN(CC(F)(F)C(F)(F)F)CC1` [Example 319, (S)-2-((7-amino-2-(furan-2-yl)-[1,2,4]triazolo[1,5-a][1,3,5]triazin-5-yl)amino)-1-(4-(2,2,3,3,3-pentafluoropropyl)piperazin-1-yl)propan-1-one], the IC50 was 15 nM.

In turn, `Nc1nc(N2CCC[C@H]2C(=O)N2CCN(C(=O)c3ccc(C(F)(F)F)cn3)CC2)nc2nc(-c3ccco3)nn12` [Example 83] returned an IC50 of 16 nM.

`Nc1nc(N2CCC[C@H]2C(=O)N2CCN(S(=O)(=O)CCOc3ccccc3)CC2)nc2nc(-c3ccco3)nn12` [Example 70, (S)-(1-(7-amino-2-(furan-2-yl)-[1,2,4]triazolo[1,5-a][1,3,5]triazin-5-yl)pyrrolidin-2-yl)(4-((2-phenoxyethyl)sulfonyl)piperazin-1-yl)methanone] came in with an IC50 of 4 nM.

As to `COC[C@H](Nc1nc(N)n2nc(-c3ccco3)nc2n1)C(=O)N1CCN(c2ncccn2)CC1` [Example 304, (S)-2-((7-amino-2-(furan-2-yl)-[1,2,4]triazolo[1,5-a][1,3,5]triazin-5-yl)amino)-3-methoxy-1-(4-(pyrimidin-2-yl)piperazin-1-yl)propan-1-one], the IC50 came to 11 nM.

Turning to `Nc1nc(N[C@@H](CO)C(=O)N2CCN(c3ccccc3)C(=O)C2)nc2nc(-c3ccco3)nn12` [Example 234], the IC50 was 12 nM.

Regarding `Nc1nc(N[C@H](C(=O)N2CCN(Cc3ccc(F)cc3F)CC2)c2ccccc2)nc2nc(-c3ccco3)nn12` [Example 14, (S)-2-((7-amino-2-(furan-2-yl)-[1,2,4]triazolo[1,5-a][1,3,5]triazin-5-yl)amino)-1-(4-(2,4-difluorobenzyl)piperazin-1-yl)-2-phenylethan-1-one], the half-maximal inhibitory concentration (IC50) was 0.368 nM.

Regarding `CCCN1CCN(C(=O)[C@@H]2CCCN2c2nc(N)n3nc(-c4ccco4)nc3n2)CC1` [Example 135, (S)-(1-(7-amino-2-(furan-2-yl)-[1,2,4]triazolo[1,5-a][1,3,5]triazin-5-yl)pyrrolidin-2-yl)(4-propylpiperazin-1-yl)methanone], the IC50 was determined as 24 nM.

`COC[C@H](Nc1nc(N)n2nc(-c3ccco3)nc2n1)C(=O)N1CCN(CC(C)(F)F)CC1` [Example 397, (S)-2-((7-amino-2-(furan-2-yl)-[1,2,4]triazolo[1,5-a][1,3,5]triazin-5-yl)amino)-1-(4-(2,2-difluoropropyl)piperazin-1-yl)-3-methoxypropan-1-one] came in with an IC50 of 12 nM.

On to `Cc1ccc(-c2nc3nc(N4CC[C@H]4C(=O)N4CCN(c5ccc(F)cc5F)CC4)nc(N)n3n2)o1` [Example 209, (S)-(1-(7-amino-2-(5-methylfuran-2-yl)-[1,2,4]triazolo[1,5-a][1,3,5]triazin-5-yl)azetidin-2-yl)(4-(2,4-difluorophenyl)piperazin-1-yl)methanone], for which the IC50 stood at 1 nM.

Consider `Nc1nc(N2CCC[C@H]2C(=O)N2CCN(C3COC3)CC2)nc2nc(-c3ccco3)nn12` [Example 403, (S)-(1-(7-amino-2-(furan-2-yl)-[1,2,4]triazolo[1,5-a][1,3,5]triazin-5-yl)pyrrolidin-2-yl)(4-(oxetan-3-yl)piperazin-1-yl)methanone], for which the 50% inhibitory concentration (IC50) was 9 nM.

The compound `COCCN1CCN(C(=O)[C@@H]2CCN2c2nc(N)n3nc(-c4ccc(C)o4)nc3n2)CC1` [Example 221, (S)-(1-(7-amino-2-(5-methylfuran-2-yl)-[1,2,4]triazolo[1,5-a][1,3,5]triazin-5-yl)azetidin-2-yl)(4-(2-methoxyethyl)piperazin-1-yl) methanone] showed an IC50 of 10 nM.

For the compound `Nc1nc(N2CC[C@H]2C(=O)N2CCN(CC(F)(F)C(F)(F)F)CC2)nc2nc(-c3ccco3)nn12` [Example 256, (S)-(1-(7-amino-2-(furan-2-yl)-[1,2,4]triazolo[1,5-a][1,3,5]triazin-5-yl)azetidin-2-yl)(4-(2,2,3,3,3-pentafluoropropyl)piperazin-1-yl)methanone], the IC50 came to 1 nM.

On to `Nc1nc(N2CCC[C@H]2C(=O)N2CCN(CC(F)(F)C(F)F)CC2)nc2oc(-c3ccco3)nc12` [Example 271, (S)-(1-(7-amino-2-(furan-2-yl)oxazolo[5,4-d]pyrimidin-5-yl)pyrrolidin-2-yl)(4-(2,2,3,3-tetrafluoropropyl)piperazin-1-yl)methanone], for which the IC50 came out at 10 nM.

Turning to `CC(C)(CN1CCN(C(=O)[C@@H]2CCCN2c2nc(N)n3nc(-c4ccco4)nc3n2)CC1)C(F)(F)F` [Example 282, (S)-(1-(7-amino-2-(furan-2-yl)-[1,2,4]triazolo[1,5-a][1,3,5]triazin-5-yl)pyrrolidin-2-yl)(4-(3,3,3-trifluoro-2,2-dimethylpropyl)piperazin-1-yl)methanone], the IC50 came to 6 nM.

In turn, `CC(C)(O)CC(=O)N1CCN(C(=O)[C@@H]2CCCN2c2nc(N)c3nc(-c4ccco4)oc3n2)CC1` [Example 263, 1-(4-((7-amino-2-(furan-2-yl)oxazolo[5,4-d]pyrimidin-5-yl)-L-prolyl)piperazin-1-yl)-3-hydroxy-3-methylbutan-1-one] had an IC50 of 25 nM.

In turn, `CC[C@H](Nc1nc(N)n2nc(-c3ccco3)nc2n1)C(=O)N1CCN(c2nccs2)CC1` [Example 248, (S)-2-((7-amino-2-(furan-2-yl)-[1,2,4]triazolo[1,5-a][1,3,5]triazin-5-yl)amino)-1-(4-(thiazol-2-yl)piperazin-1-yl)butan-1-one] had a half-maximal inhibitory concentration (IC50) of 13 nM.

On to `Nc1nc(N2CCC[C@H]2C(=O)N2CCN(C(=O)C3(C(F)(F)F)CCCCC3)CC2)nc2nc(-c3ccco3)nn12` [Example 77], for which the IC50 was found to be 0.4 nM.

As to `Nc1nc(N2CCC[C@H]2C(=O)N2CCCN(CC(F)(F)F)CC2)nc2nc(-c3ccco3)nn12` [Example 278, (S)-(1-(7-amino-2-(furan-2-yl)-[1,2,4]triazolo[1,5-a][1,3,5]triazin-5-yl)pyrrolidin-2-yl)(4-(2,2,2-trifluoroethyl)-1,4-diazepan-1-yl)methanone], the IC50 was found to be 20 nM.

Regarding `Nc1nc(N2CCC[C@H]2C(=O)N2CCC(N3CCC(F)(F)CC3)CC2)nc2nc(-c3ccco3)nn12` [Example 391, (S)-(1-(7-amino-2-(furan-2-yl)-[1,2,4]triazolo[1,5-a][1,3,5]triazin-5-yl)pyrrolidin-2-yl)(4,4-difluoro-[1,4′-bipiperidin]-1′-yl) methanone], the IC50 was determined as 7 nM.

`Nc1nc(N2CCC[C@H]2C(=O)N2CCN(C(=O)NC3CCCCC3)CC2)nc2nc(-c3ccco3)nn12` [Example 117, 4-((7-amino-2-(furan-2-yl)-[1,2,4]triazolo[1,5-a][1,3,5]triazin-5-yl)-L-prolyl)-N-cyclohexylpiperazin-1-carboxamide] yielded an IC50 of 11 nM.

`CC(C)[C@H](Nc1nc(N)n2nc(-c3ccco3)nc2n1)C(=O)N1CCN(CC(F)F)CC1` [Example 355, (S)-2-((7-amino-2-(furan-2-yl)-[1,2,4]triazolo[1,5-a][1,3,5]triazin-5-yl)amino)-1-(4-(2,2-difluoroethyl)piperazin-1-yl)-3-methylbutan-1-one] had an IC50 of 14 nM.

For the compound `Cc1ccc(-c2nc3nc(N4CC[C@H]4C(=O)N4CCN(c5ncccn5)CC4)nc(N)n3n2)o1` [Example 210, (S)-(1-(7-amino-2-(5-methylfuran-2-yl)-[1,2,4]triazolo[1,5-a][1,3,5]triazin-5-yl)azetidin-2-yl)(4-(pyrimidin-2-yl)piperazin-1-yl)methanone], the IC50 was 1 nM.

The compound `CCC(C)[C@H](Nc1nc(N)n2nc(-c3ccco3)nc2n1)C(=O)N1CCN(CC(F)(F)F)CC1` (stereo partly drawn) [Example 214, (2S)-2-((7-amino-2-(furan-2-yl)-[1,2,4]triazolo[1,5-a][1,3,5]triazin-5-yl)amino)-3-methyl-1-(4-(2,2,2-trifluoroethyl)piperazin-1-yl)pentan-1-one] yielded an IC50 of 5 nM.

`CN1CCN(C(=O)[C@@H]2CCCN2c2nc(N)n3nc(-c4ccco4)nc3n2)CC1=O` [Example 145, 4-((7-amino-2-(furan-2-yl)-[1,2,4]triazolo[1,5-a][1,3,5]triazin-5-yl)-L-prolyl)-1-methylpiperazin-2-one] gave an IC50 of 13 nM.

In the case of `Nc1nc(N2CCC[C@H]2C(=O)N2CCN(c3ccccc3F)CC2)nc2nc(-c3ccco3)nn12` [Example 120, (S)-(1-(7-amino-2-(furan-2-yl)-[1,2,4]triazolo[1,5-a][1,3,5]triazin-5-yl)pyrrolidin-2-yl)(4-(2-fluorophenyl)piperazin-1-yl)methanone], the IC50 was 6 nM.

By IC50 is commonly meant the midpoint of a concentration-inhibition curve.
